Test results taken from article PMC11986105, “Antibacterial macrocyclic peptides reveal a distinct mode of BamA inhibition” (Nature Communications, 2025).
≈ marks a conversion by molar mass, not a printed value. Where two headings read alike, the source gives them in different places. Bridge positions count the residues as written; N and C are the ends. Square brackets hold non-standard residues; d marks the D form. Peptide text beside a SMILES is read from it. Gly(NCH2CH2Ph) = O=C(O)CNCCc1ccccc1; NMeF = CN[C@@H](Cc1ccccc1)C(=O)O; Tic = O=C(O)[C@@H]1Cc2ccccc2CN1

Columns and labels:
E. coli BamA β-barrel = target: T1, E. coli BamA β-barrel (Escherichia coli, UniProt P0A940); experiment: SPR binding to E. coli BamA β-barrel; details: for KD: SPR, N-terminally biotinylated E. coli BamA β-barrel, single cycle kinetics, average of 2, 3, or 4 replicates ± SD; for kon: pH 7.5, read-out: ka
T1 construct: residues 421–810 from strain MG1655; made in house
From the text: For SPR, E. coli K-12 BamA (EcBamA; residues 421–810 from strain MG1655), A. baumannii BamA (AbBamA; residues 425–841 from strain ATCC19606) and P. aeruginosa BamA (PaBamA; residues 420–797 from strain PAO1) were synthesized and cloned into pET23b (Millipore Sigma) with a N-terminal Avitag for biotin conjugation. For mRNA display screening, an additional E. coli BamA (421–810) construct (EcBamA′) was designed with an N-terminal His tag, a TEV protease cleavage site, and three point mutations (C690S/C700S/S752C) to allow for site specific biotinylation of residue 752.
For peptide binding assays a Cytiva Series S CAP sensor chip was loaded onto a Biacore T200, and the chip surface was prepared according to the manufacturer’s recommendations. The running buffer was 10 mM HEPES pH 7.5, 150 mM NaCl, 0.1% LDAO. Briefly, the CAP reagent (Cytiva) was diluted 1:10 in HBS-EP buffer (0.01 M HEPES pH 7.4, 0.15 M NaCl, 3 mM EDTA, 0.005% v/v Surfactant P20) and flowed across the chip surface for 300 sec. Biotinylated EcBamA, PaBamA, or AbBamA was then immobilized on the surface by flowing the protein over the chip for 200 sec. Cyclic peptides were injected at concentrations of 12.3, 37, 111, 333 and 1000 nM in single-cycle kinetic mode for 120 sec followed by a 120 sec dissociation period, and after the highest concentration of peptide was injected the dissociation period was 1200 sec. The chip surface was regenerated after each peptide was tested by flowing regeneration solution (8 M guanidine HCl, 1 M NaOH) over the chip surface.

[1] = tested on: E. coli WT (JCM158, MC4100 ara^r); format: cell-based, Escherichia coli
Description: (§1) The MICs of the cyclic peptides obtained in the mRNA display screens against E. coli strains JCM158 and JCM972 were measured using broth microdilution in cation-adjusted Mueller−Hinton broth (CAMHB), as recommended by the Clinical and Laboratory Standards Institute. In addition, zone of inhibition (ZOI) assays using JCM158, JCM972, AM710, AM711, MB5746, Acinetobacter baumannii ATCC17987, Pseudomonas aeruginosa MB5919, and Staphylococcus aureus Col were performed to provide a visual display of the relative susceptibility of the strains to the peptides. Briefly, ZOI studies were performed by first growing the bacteria in CAMHB to late exponential phase at 37 °C. Molten CAMHA (CAMHB containing 1.2% agar) was equilibrated to 48 °C in a water bath for 60 min. Cells were then mixed with 30 mL of the molten CAMHA at a 1:1000 dilution and immediately poured onto an Omni-tray plate (NUNC cat# 242811). The agar plate was kept at room temperature for 20 min to solidify and further dried in a biosafety cabinet for ~20 min. Each peptide was dissolved in DMSO, and 2–5 µL aliquots were dispensed onto the top of the plate in a two-fold dilution series in which the peptides were diluted in DMSO. After the liquid was absorbed, plates were incubated at 37 °C for 18 h, and images were acquired using a Hi-Res imaging system.

[2] = tested on: E. coli BamA101 (JCM972, MC4100 bamA101); format: cell-based, Escherichia coli; details: in solution, CAMHB broth microdilution
Description: as §1

[3] = tested on: AD202 transformed with pJH224; details: 2.5 mM EDTA or peptide at 2x MIC, 5 or 15 min
Description: Overnight cultures of AD202 transformed with pJH224 were grown at 37 °C in M9/ampicillin, washed, and added to 55 ml of fresh medium at OD550 = 0.02. When cultures reached OD550 = 0.2, 10 μM IPTG was added and cultures were incubated at 37 °C for an additional 15 min. Cultures were then divided into five 10 ml aliquots and placed into 15 ml tubes. Cells were pelleted in 15 ml tubes (3000 x g, 15 min, room temperature), resuspended in 1 ml pre-warmed M9 and transferred to 50 ml tubes. […] Cells were then placed into 1.7 ml tubes on ice for 5 min and centrifuged (2900 x g, 6 min, 4 °C). The cell pellet was discarded and the supernatant was centrifuged in a TLA.2 rotor in a Beckman Optima MAX-TL ultracentrifuge (100,000 x g, 30 min, 4 °C). Once again the pellet was discarded, and 5 mL 4x LDS sample buffer was then added to 20 mL of each supernatant (which represents the culture medium of ~0.05 OD equivalents), and molecules located in the culture medium were resolved by SDS-PAGE on 12% Novex Tris-Bis minigels (ThermoFisher) using MES running buffer. LPS was visualized using the Molecular Probes Pro-Q Emerald 300 Lipopolysaccharide Gel Stain Kit (ThermoFisher) following the manufacturer’s instructions.

[4] = tested on: EspP(G1123R) assembly in AD202 (bamA+); experiment: Pulse-chase assembly of slow mutant EspP(G1123R) in AD202; format: cell-based, Escherichia coli; details: for effect on EspP(G1123R) assembly when added after the mutant binds to BAM: added 2 min after the start of the chase, peptides 2x MIC, EDTA 2.5 mM, sorbitol 0.8 M
Description: AD202 (MC4100 ompT::kan) transformed with pJH224 [Ptrc-espP(G1123R)] were grown to log phase in M9, the expression of espP(G1123R) was induced by adding 10 µM IPTG, and cells were subjected to pulse-chase labeling. […] Immunoprecipitations were performed using an anti-EspP C-terminal peptide antiserum and proteins were resolved by SDS-PAGE. Representative experiments are shown (left), and the completion of EspP(G1123R) assembly was quantitated by calculating the percent of radiolabeled proEspP(G1123R) that underwent autocatalytic cleavage in untreated cells (control) or cells treated with the indicated peptide 2 min after the start of the chase (red arrows) in three biologically independent experiments (right). […] The data are presented as mean values and error bars represent the SEM. In C 2.5 mM EDTA was added 2 min post-chase, and in E cells were harvested and resuspended in M9 (control) or M9 containing 0.8 M sorbitol 2 min post-chase. A representative experiment is shown (left), and the assembly of EspP(G1123R) in cells treated with EDTA or sorbitol or untreated (control) in three biologically independent experiments was quantitated as in B (right).
To analyze the assembly of OMPs in living cells, overnight cultures of HDB164 (MC4100 ara^R bamA101 ompT::spc) transformed with pJH110 (Ptrc-espPΔ5)[65] or AD202 transformed with pRSL5 (Ptrc-espP)[77] or pJH224 [Ptrc-espP (G1123R)][67] were grown in M9 supplemented with 100 μg/mL ampicillin (M9/ampicillin) at 37 °C. The overnight cultures were washed in M9 and added to 50 ml fresh M9/ampicillin at OD550 = 0.02. When the cultures reached OD550 = 0.2, IPTG (10 μM) was added and the cells were incubated for another 30 min at 37 °C before being subjected to pulse-chase labeling as previously described[66]. At each timepoint 1 ml aliquots were removed and proteins were precipitated by adding 10% (v/v) TCA. […] As a control, an equal amount of DMSO was added. In some experiments, 2.5 mM EDTA, pH 8 was added instead of a cyclic peptide. […]

[5] = tested on: EspP(G1123R) assembly in AD202 (bamA+); parameters: method as in PMID 36165532; details: cited from earlier work
[6] = tested on: wild-type EspP assembly in AD202; experiment: Pulse-chase assembly of wild-type EspP in AD202; format: cell-based, Escherichia coli; details: 0.8 M sorbitol 2 min after start of chase, 28 °C
Description: To analyze the assembly of OMPs in living cells, overnight cultures of HDB164 (MC4100 ara^R bamA101 ompT::spc) transformed with pJH110 (Ptrc-espPΔ5)[65] or AD202 transformed with pRSL5 (Ptrc-espP)[77] or pJH224 [Ptrc-espP (G1123R)][67] were grown in M9 supplemented with 100 μg/mL ampicillin (M9/ampicillin) at 37 °C. The overnight cultures were washed in M9 and added to 50 ml fresh M9/ampicillin at OD550 = 0.02. When the cultures reached OD550 = 0.2, IPTG (10 μM) was added and the cells were incubated for another 30 min at 37 °C before being subjected to pulse-chase labeling as previously described[66]. At each timepoint 1 ml aliquots were removed and proteins were precipitated by adding 10% (v/v) TCA. […] As a control, an equal amount of DMSO was added. […] Radioactive proteins were visualized on a Fuji FLA 9000 imager using phoshophorimaging settings, and data was quantitated using Fuji MultiGauge v.
For experiments that involved EspP or EspP derivatives, the accumulated β-barrel was defined as the normalized β-barrel signal, where the normalization factor was (preproEspPsignal + proEspPsignal + β-domainsignal) at the 0 min timepoint for each condition and each experiment. For some experiments that involved EspP or EspP derivatives, the percent cleavage at each timepoint was also measured and was defined as [β-barrel signal /(proEspPsignal + β-barrelsignal)] x 100. […]

| SMILES | KD (E. coli BamA β-barrel) | MIC E. coli BamA101 [2] [µM] | kon (E. coli BamA β-barrel) [M⁻¹ s⁻¹] | MIC E. coli WT ([1]; JCM158, 18 h) [µM] | effect on EspP(G1123R) assembly when added after the mutant binds to BAM [4] | also measured |
| --- | --- | --- | --- | --- | --- | --- |
| CC(C)C[C@@H]1NC(=O)[C@H](Cc2ccccc2)NC(=O)CSC[C@@H](C(=O)NCC(N)=O)NC(=O)[C@H](CC(=O)O)NC(=O)[C@H](Cc2ccccc2)N(C)C(=O)CNC(=O)[C@H](CCCNC(=N)N)NC(=O)[C@H](C(C)C)NC(=O)[C@@H]2CCCN2C(=O)[C@H](CCCNC(=N)N)NC(=O)[C@H](Cc2c[nH]cn2)NC(=O)[C@H](Cc2ccc(O)cc2)NC(=O)[C@H](Cc2ccccc2)N(C)C(=O)[C@H](Cc2c[nH]c3ccccc23)NC1=O [CP1, F.L.W.MePhe.Y.H.R.P.V.R.G.MePhe.D.C.G] ({CH2CO}-FLW[NMeF]YHRPVRG[NMeF]DCG-NH2; thioether N-14) | low-nanomolar range | 12.5 (≈ 24.6 µg/mL) | – | – | – | MIC E. coli WT ([1]; in solution, CAMHB broth microdilution): > 50 µM |
| CC(C)[C@@H]1NC(=O)[C@H](CO)NC(=O)[C@H](CCCNC(=N)N)NC(=O)[C@H](CO)NC(=O)[C@@H]2CCCN2C(=O)[C@H](Cc2c[nH]c3ccccc23)NC(=O)[C@@H]2Cc3ccccc3CN2C(=O)[C@H](Cc2c[nH]c3ccccc23)NC(=O)[C@H](CCCNC(=N)N)NC(=O)CNC(=O)[C@H](CO)NC(=O)[C@H](Cc2ccccc2)NC(=O)CSC[C@@H](C(=O)NCC(N)=O)NC(=O)CNC1=O [CP2, F.S.G.R.W.Tic.W.P.S.R.S.V.G.C.G] ({CH2CO}-FSGRW[Tic]WPSRSVGCG-NH2; thioether N-14) | low-nanomolar range | 6.3 (≈ 11.2 µg/mL) | 430000 ± 2.9e+10 | > 50 | – | – |
| CC(C)C[C@@H]1NC(=O)CN(CCc2ccccc2)C(=O)[C@H](Cc2ccc(O)cc2)NC(=O)[C@H](CCCNC(=N)N)NC(=O)[C@H](CCCNC(=N)N)NC(=O)[C@H](Cc2ccccc2)NC(=O)CSC[C@@H](C(=O)NCC(N)=O)NC(=O)[C@H](Cc2ccc(O)cc2)NC(=O)[C@@H]2Cc3ccccc3CN2C(=O)[C@H](C(C)C)NC(=O)[C@H](Cc2c[nH]c3ccccc23)NC(=O)[C@H](Cc2ccc(O)cc2)NC(=O)[C@H](CC(N)=O)NC(=O)[C@H](CC(=O)O)NC1=O [CP3, F.R.R.Y.PeGly.L.D.N.Y.W.V.Tic.Y.C.G] ({CH2CO}-FRRY[Gly(NCH2CH2Ph)]LDNYWV[Tic]YCG-NH2; thioether N-14) | low-nanomolar range | 6.3 (≈ 13.3 µg/mL) | 160000 ± 3e+09 | > 50 | – | – |
| O=C(O)CN(CCN(CC(=O)O)CC(=O)O)CC(=O)O [EDTA] | – | – | – | – | accelerate | release of LPS into the culture medium [3]: releasing LPS into the culture medium; effect on EspP(G1123R) assembly, EDTA added prior to synthesis ([4]; 2.5 mM EDTA added 1 min or 5 min before the start of the chase): accelerates |
| NC(N)=NC(=O)CC(Nc1nc(N=C(N)N)nc(NC2CCC(NC(=O)Cn3nnc(-c4ccc(F)cc4)n3)CC2)n1)C1CC1 (centres unmarked) [MRL-494] | – | – | – | – | – | effect on EspP(G1123R) assembly when added after the protein binds to BAM [5]: inhibit the assembly |
| OC[C@@H](O)[C@@H](O)[C@H](O)[C@@H](O)CO [sorbitol] | – | – | – | – | accelerate | effect on assembly of wild-type EspP, sorbitol [6]: slightly delay |
